{"source": "paper PMC10766536", "about": "(The Journal of Antibiotics, 2023)", "key": {"[1]": {"biological_target": "T1, MDCK-MDR1: overexpression of Pgp (Homo sapiens, UniProt P08183)", "T1 sequence (P08183 whole entry)": "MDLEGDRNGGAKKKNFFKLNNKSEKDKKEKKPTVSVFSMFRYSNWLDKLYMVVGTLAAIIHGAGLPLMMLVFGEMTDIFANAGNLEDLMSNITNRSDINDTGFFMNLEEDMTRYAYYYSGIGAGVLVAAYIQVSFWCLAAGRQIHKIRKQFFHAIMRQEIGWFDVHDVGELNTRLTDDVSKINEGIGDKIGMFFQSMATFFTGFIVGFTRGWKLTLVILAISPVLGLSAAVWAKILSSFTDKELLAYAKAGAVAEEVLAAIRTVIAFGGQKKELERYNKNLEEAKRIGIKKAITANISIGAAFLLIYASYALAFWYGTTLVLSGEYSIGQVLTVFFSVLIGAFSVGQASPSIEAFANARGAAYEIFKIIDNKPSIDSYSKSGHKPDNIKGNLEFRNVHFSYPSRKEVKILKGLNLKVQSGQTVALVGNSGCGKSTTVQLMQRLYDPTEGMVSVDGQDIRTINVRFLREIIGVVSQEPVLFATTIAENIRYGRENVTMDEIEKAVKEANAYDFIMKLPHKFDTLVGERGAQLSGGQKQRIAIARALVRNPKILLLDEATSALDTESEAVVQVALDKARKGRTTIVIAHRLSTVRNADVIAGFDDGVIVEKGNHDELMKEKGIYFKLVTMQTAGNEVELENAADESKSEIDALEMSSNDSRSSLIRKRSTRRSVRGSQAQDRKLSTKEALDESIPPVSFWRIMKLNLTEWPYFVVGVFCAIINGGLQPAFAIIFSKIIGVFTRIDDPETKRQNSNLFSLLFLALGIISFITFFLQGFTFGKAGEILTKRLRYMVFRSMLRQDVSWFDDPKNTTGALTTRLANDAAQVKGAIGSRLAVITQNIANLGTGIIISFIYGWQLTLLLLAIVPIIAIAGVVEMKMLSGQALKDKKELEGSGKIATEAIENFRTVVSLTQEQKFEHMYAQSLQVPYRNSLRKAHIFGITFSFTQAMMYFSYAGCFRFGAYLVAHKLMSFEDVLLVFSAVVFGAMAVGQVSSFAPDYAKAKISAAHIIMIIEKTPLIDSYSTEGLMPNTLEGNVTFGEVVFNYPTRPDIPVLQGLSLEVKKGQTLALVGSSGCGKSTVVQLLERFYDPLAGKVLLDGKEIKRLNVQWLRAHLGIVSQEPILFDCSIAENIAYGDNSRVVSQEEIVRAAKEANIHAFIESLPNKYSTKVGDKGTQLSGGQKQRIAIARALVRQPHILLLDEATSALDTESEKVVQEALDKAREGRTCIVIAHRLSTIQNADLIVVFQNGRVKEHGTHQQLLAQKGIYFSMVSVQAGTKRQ"}, "[2]": {"tested_on": "Caco-2: endogenous transporters"}, "CYP 2C8": {"biological_target": "CYP 2C8 (Homo sapiens, UniProt P10632)", "sequence (P10632 whole entry)": "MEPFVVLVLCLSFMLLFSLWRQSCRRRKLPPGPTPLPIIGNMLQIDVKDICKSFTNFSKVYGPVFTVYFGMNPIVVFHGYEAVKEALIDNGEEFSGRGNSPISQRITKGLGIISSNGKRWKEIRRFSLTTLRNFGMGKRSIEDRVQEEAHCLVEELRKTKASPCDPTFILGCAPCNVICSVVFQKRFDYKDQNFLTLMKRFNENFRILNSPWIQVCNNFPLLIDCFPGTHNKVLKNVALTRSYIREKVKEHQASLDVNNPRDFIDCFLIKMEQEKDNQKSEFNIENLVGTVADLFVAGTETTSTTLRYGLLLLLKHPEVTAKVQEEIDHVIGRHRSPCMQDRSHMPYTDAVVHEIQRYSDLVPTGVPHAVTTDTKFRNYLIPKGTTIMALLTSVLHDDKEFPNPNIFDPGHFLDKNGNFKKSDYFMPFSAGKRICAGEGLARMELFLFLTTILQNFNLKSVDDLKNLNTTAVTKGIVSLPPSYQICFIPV", "assay": "CYP inhibition", "conditions": "read-out: CYP inhibition IC50; CYP 2C8, substrate Amodiaquine; ND = Not Detected"}, "[3]": {"tested_on": "Salmonella typhimurium AR-0031", "assay": "S. typhimurium intracellular killing assay in THP-1 macrophages", "assay_type": "cell-based", "conditions": "Salmonella typhimurium AR-0031 in THP-1 macrophages, top conc. 1e−4 M", "experimental": "(§1) THP-1 monocytic cell line (American Type Culture Collection) was grown in media (RPMI + 10% FBS + 1% Penicillin/Streptomycin), then seeded at a density of 1e5 cells/well in a 96 well plate and differentiated into macrophages for 3 days prior to infection using 200 nM PMA. Overnight culture of S. aureus or S. typhimurium was grown in RPMI or TSB, respectively, washed twice with PBS and resuspended at 1e7 cfu/ml in PBS. THP-1 were washed with warm media (RMPI without FBS) to remove the Penicillin/Streptomycin and then infected with the bacterial suspension at a multiplicity of infection of 10:1 (S. aureus:macrophages) or 5:1 (S. typhimurium:macrophages). Plates were centrifuged at 300 × g for 5 min to synchronize adhesion of the bacteria to the macrophages, then incubated at 37 °C for 2 h for S. aureus infection or 1 h for S. typhimurium infection. Free-floating bacteria were removed by washing twice with warm media and the remaining extracellular bacteria were killed by addition of media containing gentamicin (50 ug/ml). After 1 h, media was aspirated and the indicated compound was added to the S. aureus-infected macrophages in a dilution series starting at 1e−6 M, with 1:5 dilutions for 6 points (1.0 × 10^−6 M, 2.0 × 10^−7 M, 4.0 × 10^−8 M, 8.0 × 10^−9 M, 1.6 × 10^−9 M, and 3.2 × 10^−10 M) or to the to the S. typhimurium-infected macrophages in a dilution series starting at 1e−4 M, with 1:3 dilutions followed by 1:10 dilutions for 6 points (1.0 × 10^−4 M, 3.0 × 10^−5 M, 1.0 × 10^−5 M, 1.0 × 10^−6 M, 1.0 × 10^−7 M, and 1.0 × 10^−8 M). The compounds were added in media containing 50 µg/ml gentamicin to prevent extracellular growth of bacteria. After 2 h, plates were washed twice with warm RPMI without FBS, and 100 μl of THP-1 lysis buffer (0.1% Triton in PBS) was added to each well. Bacterial survival was enumerated by colony forming units (cfu) through serial dilution and plating onto tryptic soy agar (TSA, Teknova) plates."}, "[4]": {"tested_on": "Salmonella typhimurium ATCC 14028", "assay": "S. typhimurium intracellular killing assay in THP-1 macrophages", "assay_type": "cell-based", "conditions": "Salmonella typhimurium ATCC 14028 in THP-1 macrophages, top conc. 1e−4 M", "experimental": "as §1"}, "CYP 2D6": {"biological_target": "CYP 2D6 (Homo sapiens, UniProt P10635)", "sequence (P10635 whole entry)": "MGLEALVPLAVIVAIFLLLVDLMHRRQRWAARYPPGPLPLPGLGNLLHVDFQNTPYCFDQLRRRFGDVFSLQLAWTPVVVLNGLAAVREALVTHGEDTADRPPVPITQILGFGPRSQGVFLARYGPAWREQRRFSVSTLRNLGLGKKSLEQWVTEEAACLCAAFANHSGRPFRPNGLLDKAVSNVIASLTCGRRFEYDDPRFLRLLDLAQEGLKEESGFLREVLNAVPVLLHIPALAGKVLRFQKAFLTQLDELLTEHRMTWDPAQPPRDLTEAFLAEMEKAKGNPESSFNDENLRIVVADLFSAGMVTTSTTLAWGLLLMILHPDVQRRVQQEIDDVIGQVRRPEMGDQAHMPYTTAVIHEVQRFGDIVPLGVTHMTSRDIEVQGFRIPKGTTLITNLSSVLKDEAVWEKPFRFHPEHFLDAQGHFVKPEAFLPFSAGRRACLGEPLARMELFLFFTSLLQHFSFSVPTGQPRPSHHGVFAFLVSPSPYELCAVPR", "assay": "CYP inhibition", "conditions": "read-out: CYP inhibition IC50; CYP 2D6, substrate Dextromethorphan; ND = Not Detected"}, "[5]": {"assay": "Toxicokinetics in 2-week IV rat toxicity study", "assay_type": "in vivo", "experimental": "A subset from each dose group was maintained for 14 days after the last dose to evaluate delayed toxicity and/or recovery. All animals were observed twice daily for mortality and signs of pain or distress. Detailed clinical observations, body weight measurements and food consumption were conducted weekly; post dose observations (30 min post dose) were conducted daily or as required. Clinical pathology evaluations (hematology, coagulation parameters, and serum chemistry) were performed using samples collected on the day of scheduled sacrifice (main and recovery). At the end of the 14-day dosing period, and at the end of the 14-day recovery period, necropsies were performed on all animals, selected organs were weighed, and tissues were examined macroscopically and microscopically. Toxicokinetic parameters were evaluated on Day 1 and 14."}, "CYP 3A4 [6]": {"tested_on": "CYP 3A4"}, "[7]": {"assay": "Compound stability in CYP induction assay"}, "S. aureus NRS384": {"tested_on": "S. aureus NRS384", "assay": "S. aureus intracellular killing assay in THP-1 macrophages", "assay_type": "cell-based", "conditions": "S. aureus NRS384 in THP-1 macrophages, 2 h, top conc. 1e−6 M", "experimental": "as §1"}, "CYP 2C19": {"biological_target": "CYP 2C19 (Homo sapiens, UniProt P33261)", "sequence (P33261 whole entry)": "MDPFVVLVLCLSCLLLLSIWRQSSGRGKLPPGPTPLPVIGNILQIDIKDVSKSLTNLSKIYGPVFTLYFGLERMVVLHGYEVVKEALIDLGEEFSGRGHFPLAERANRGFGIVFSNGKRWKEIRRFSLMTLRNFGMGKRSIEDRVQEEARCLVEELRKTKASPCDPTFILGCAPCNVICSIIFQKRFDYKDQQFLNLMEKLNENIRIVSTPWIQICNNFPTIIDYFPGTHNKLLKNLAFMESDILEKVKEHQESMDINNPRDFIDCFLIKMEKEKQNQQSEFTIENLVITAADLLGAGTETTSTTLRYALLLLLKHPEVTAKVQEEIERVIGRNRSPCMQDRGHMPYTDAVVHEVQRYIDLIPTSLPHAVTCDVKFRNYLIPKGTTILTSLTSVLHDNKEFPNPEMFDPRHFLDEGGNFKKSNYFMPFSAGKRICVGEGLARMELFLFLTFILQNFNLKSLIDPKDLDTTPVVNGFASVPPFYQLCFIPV"}, "[8]": {"tested_on": "Salmonella typhimurium AR-0031", "assay": "S. typhimurium broth killing (growth inhibition) assay", "conditions": "Salmonella typhimurium AR-0031, TSB, 24 h", "text": "To test the potency of rifamycin analogs of the disclosure in vitro, a broth growth inhibition assay was developed."}, "[9]": {"tested_on": "Caco-2: endogenous transporters", "assay": "Caco-2 permeability"}, "[10]": {"biological_target": "T1, MDCK-MDR1: overexpression of Pgp", "assay": "MDCK-MDR1 permeability and efflux"}, "CYP 3A4 [11]": {"biological_target": "CYP 3A4 (Homo sapiens, UniProt P08684)", "sequence (P08684 whole entry)": "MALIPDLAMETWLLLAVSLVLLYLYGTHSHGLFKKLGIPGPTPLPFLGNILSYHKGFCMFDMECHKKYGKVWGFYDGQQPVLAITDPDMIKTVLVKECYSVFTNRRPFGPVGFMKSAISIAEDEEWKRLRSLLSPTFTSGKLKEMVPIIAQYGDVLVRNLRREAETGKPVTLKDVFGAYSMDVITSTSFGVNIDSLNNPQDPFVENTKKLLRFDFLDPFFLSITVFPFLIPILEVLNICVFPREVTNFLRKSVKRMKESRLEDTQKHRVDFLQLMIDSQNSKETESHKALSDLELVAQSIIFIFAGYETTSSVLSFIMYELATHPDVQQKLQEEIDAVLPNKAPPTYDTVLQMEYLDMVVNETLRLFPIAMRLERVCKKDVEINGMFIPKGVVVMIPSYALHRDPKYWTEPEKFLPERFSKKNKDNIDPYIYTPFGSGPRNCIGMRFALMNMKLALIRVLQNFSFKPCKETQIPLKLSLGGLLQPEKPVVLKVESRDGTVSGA", "conditions": "read-out: CYP inhibition IC50, ND = Not Detected"}, "[12]": {"conditions": "rat, s9"}, "[13]": {"conditions": "mouse, s9"}, "[14]": {"tested_on": "S. aureus MRSA strain NRS384", "assay": "S. aureus IV advanced disseminated infection mouse model, kidney burden", "assay_type": "in vivo, Balb/c mice", "conditions": "0.01–0.25 mg/kg sc single dose in combination with vancomycin, NRS384", "experimental": "(§2) S. aureus MSRA strain NRS384 or N315 (BEI Resources), where indicated, was grown overnight in TSB and sub-cultured to mid-logarithmic phase. […] From 1 to 3 days post-infection, indicated mice were injected subcutaneously with 110 mg/kg vancomycin twice daily where indicated. […] Mice were monitored for weight loss and body conditioning score throughout the infection. At 4 days post-infection, mice were euthanized, and the S. aureus kidney burden was quantified by tissue homogenization followed by enumeration of cfu through serial dilution in PBS and plating onto TSA plates. Data points represent the kidney burden from individual mice tested. Statistical analysis was conducted with GraphPad Prism 9, Version 9.4.1."}, "[15]": {"tested_on": "S. aureus MRSA strain N315", "assay": "S. aureus IV advanced disseminated infection mouse model, kidney burden", "assay_type": "in vivo, Balb/c mice", "experimental": "as §2"}}, "note": "Where two headings read alike, the source gives them in different places."}
{"smiles": "COC1C=COC2(C)Oc3c(C)c(O)c4c(=O)c(c5oc6cc(OCCN(C)C)ccc6nc-5c4c3C2=O)NC(=O)C(C)=CC=CC(C)C(O)C(C)C(O)C(C)C(OC(C)=O)C1C", "note": "(stereo not drawn) [Compound 4]", "values": [{"measurement": "Mean A-B % Recovery", "setting": "[1]", "value": 89.10, "unit": "%"}, {"measurement": "Mean B-A % Recovery", "setting": "[1]", "value": 54.80, "unit": "%"}, {"measurement": "Mean Papp A-B", "setting": "[1]", "value": "1.38 10^−6 cm/s"}, {"measurement": "Mean Papp B-A", "setting": "[1]", "value": "18.9 10^−6 cm/s"}, {"measurement": "Mean A-B % Recovery", "setting": "[2]", "value": 52.70, "unit": "%"}, {"measurement": "Mean B-A % Recovery", "setting": "[2]", "value": 66.30, "unit": "%"}, {"measurement": "Mean Papp A-B", "setting": "[2]", "value": "2.59 10^−6 cm/s"}, {"measurement": "Mean Papp B-A", "setting": "[2]", "value": "10.3 10^−6 cm/s"}, {"measurement": "IC50", "setting": "CYP 2C8", "value": 6.76, "unit": "µM"}, {"measurement": "Intracellular MIC", "setting": "[3]", "value": 30, "unit": "µM"}, {"measurement": "Intracellular MIC", "setting": "[4]", "value": 100, "unit": "µM"}, {"measurement": "IC50", "setting": "CYP 2D6", "value": 11.7, "unit": "µM"}, {"measurement": "accumulation following 14 daily doses", "setting": "[5]; rat IV QD", "value": "No apparent accumulation"}, {"measurement": "sex difference in exposure", "setting": "[5]; rat IV QD 1 mg/kg/day, males vs females", "value": "No sex difference"}, {"measurement": "dose proportionality of Cmax and AUCtau", "setting": "[5]; rat IV QD 0.1-10 mg/kg/day", "value": "approximately dose-proportional"}, {"measurement": "AUC or Cmax when coadministered with vancomycin", "setting": "[5]; rat IV, 1 + 110 mg/kg/day, compound 5: except Day 1, slightly greater Cmax and AUC", "value": "not impacted"}, {"measurement": "Fold Induction (Enzyme Activity)", "setting": "CYP 3A4 [6]", "value": 0.128}, {"measurement": "Average % Stability", "setting": "[7]", "value": 75.8, "unit": "%"}, {"measurement": "Intracellular MIC", "setting": "S. aureus NRS384", "value": 0.04, "unit": "µM"}, {"measurement": "IC50", "setting": "CYP 2C19", "value": 9.99, "unit": "µM"}, {"measurement": "Broth MIC", "setting": "[8]", "value": 1, "unit": "µM"}, {"measurement": "Mean (B-A/A-B) Efflux Ratio", "setting": "[9]", "value": 3.97}, {"measurement": "Mean (B-A/A-B) Efflux Ratio", "setting": "[10]", "value": 13.7}, {"measurement": "IC50", "setting": "CYP 3A4 [11]; CYP 3A4, substrate Midazolam", "value": 8.05, "unit": "µM"}, {"measurement": "IC50", "setting": "CYP 3A4 [11]; CYP 3A4, substrate Testosterone", "value": 5.66, "unit": "µM"}, {"measurement": "T1/2", "setting": "[12]", "value": ">2", "unit": "h"}, {"measurement": "T1/2", "setting": "[13]", "value": ">2", "unit": "h"}, {"measurement": "S. aureus kidney burden", "setting": "[14]", "value": "further reduced kidney burden"}, {"measurement": "bacterial load (kidney)", "setting": "[15]; 0.01 mg/kg in combination with vancomycin", "value": "below the limit of detection"}, {"measurement": "S. aureus kidney burden", "setting": "[15]; 0.01–0.75 mg/kg in combination with vancomycin", "value": "to or near the limit of detection"}]}
